Results from ChEMBL document CHEMBL1201862, “PubChem BioAssay data set” (2004).
Values belong to the compound of their own block, whether it stands above or below them. Active and inactive are the calls of the source.

Legend:
Escherichia coli = experiment: microbe, parasite or virus in culture
[1] = target: Delta-type opioid receptor (Homo sapiens, UniProt P41143); experiment: Counterscreen for agonists of heterodimerization of the mu 1 (OPRM1) and delta 1 (OPRD1) opioid receptors: Luminescence-based cell-based high throughput dose response assay to identify agonists of OPRD1 homodimerization. [Related pubchem assays (depositor defined):AID504326, AID504355, AID504692, AID504904, AID504905]; type: functional
[2] = target: 5-hydroxytryptamine receptor 5A (Homo sapiens, UniProt P47898); experiment: Counterscreen for agonists of OPRM1-OPRD1 heterodimerization: luminescence-based cell-based high throughput dose response assay to identify agonists of 5-hydroxytryptamine (serotonin) 5A receptor (HTR5A). [Related pubchem assays (depositor defined):AID504326, AID504355, AID504692, AID504904, AID504905]; type: functional
Mu-type opioid receptor = Mu-type opioid receptor (Homo sapiens, UniProt P35372); experiment: Counterscreen for agonists of heterodimerization of the mu 1 (OPRM1) and delta 1 (OPRD1) opioid receptors: Luminescence-based cell-based high throughput dose response assay to identify agonists of OPRM1 homodimerization.; type: functional;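 further: U2OS cells expressing OPRM1 and beta-arrestin as split beta-galactosidase partners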
[3] = target: T1, Microphthalmia-associated transcription factor (Homo sapiens, UniProt O75030); experiment: TRPM1 promoter luciferase signal decrease, dose response, MITF inhibitor project, cell-based, SK-MEL-5, cherry-picked, set 3 (AID 493073); type: functional
T1 sequence (O75030 whole entry): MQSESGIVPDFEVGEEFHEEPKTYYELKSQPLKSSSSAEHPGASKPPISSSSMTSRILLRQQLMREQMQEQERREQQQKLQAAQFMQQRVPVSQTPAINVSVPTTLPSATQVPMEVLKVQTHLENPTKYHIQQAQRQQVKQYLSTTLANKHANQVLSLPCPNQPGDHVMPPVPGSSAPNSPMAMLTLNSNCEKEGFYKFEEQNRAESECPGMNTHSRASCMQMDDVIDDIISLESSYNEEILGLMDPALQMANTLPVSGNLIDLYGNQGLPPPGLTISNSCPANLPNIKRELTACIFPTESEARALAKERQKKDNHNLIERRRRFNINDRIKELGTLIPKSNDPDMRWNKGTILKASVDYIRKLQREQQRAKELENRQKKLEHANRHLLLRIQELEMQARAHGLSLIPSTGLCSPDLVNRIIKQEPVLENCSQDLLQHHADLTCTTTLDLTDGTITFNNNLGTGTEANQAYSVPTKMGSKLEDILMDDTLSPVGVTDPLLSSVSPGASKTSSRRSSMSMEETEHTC

A-375 [4] = experiment: A375 melanoma cell viability reduction, dose response, counter-screen for MITF modulator project, cherry-pick samples, set 2 (AID 540335); type: functional, cell-based; conditions: Homo sapiens
[5] = target: T2, Short transient receptor potential channel 4 (Mus musculus, UniProt Q9QUQ5); experiment: mouse TRPC4 channel activators, dose response, cell-based, HEK293 TRPC4/mu-opioid, Fluo-4 calcium (AID 434937); type: functional
T2 sequence (Q9QUQ5 whole entry): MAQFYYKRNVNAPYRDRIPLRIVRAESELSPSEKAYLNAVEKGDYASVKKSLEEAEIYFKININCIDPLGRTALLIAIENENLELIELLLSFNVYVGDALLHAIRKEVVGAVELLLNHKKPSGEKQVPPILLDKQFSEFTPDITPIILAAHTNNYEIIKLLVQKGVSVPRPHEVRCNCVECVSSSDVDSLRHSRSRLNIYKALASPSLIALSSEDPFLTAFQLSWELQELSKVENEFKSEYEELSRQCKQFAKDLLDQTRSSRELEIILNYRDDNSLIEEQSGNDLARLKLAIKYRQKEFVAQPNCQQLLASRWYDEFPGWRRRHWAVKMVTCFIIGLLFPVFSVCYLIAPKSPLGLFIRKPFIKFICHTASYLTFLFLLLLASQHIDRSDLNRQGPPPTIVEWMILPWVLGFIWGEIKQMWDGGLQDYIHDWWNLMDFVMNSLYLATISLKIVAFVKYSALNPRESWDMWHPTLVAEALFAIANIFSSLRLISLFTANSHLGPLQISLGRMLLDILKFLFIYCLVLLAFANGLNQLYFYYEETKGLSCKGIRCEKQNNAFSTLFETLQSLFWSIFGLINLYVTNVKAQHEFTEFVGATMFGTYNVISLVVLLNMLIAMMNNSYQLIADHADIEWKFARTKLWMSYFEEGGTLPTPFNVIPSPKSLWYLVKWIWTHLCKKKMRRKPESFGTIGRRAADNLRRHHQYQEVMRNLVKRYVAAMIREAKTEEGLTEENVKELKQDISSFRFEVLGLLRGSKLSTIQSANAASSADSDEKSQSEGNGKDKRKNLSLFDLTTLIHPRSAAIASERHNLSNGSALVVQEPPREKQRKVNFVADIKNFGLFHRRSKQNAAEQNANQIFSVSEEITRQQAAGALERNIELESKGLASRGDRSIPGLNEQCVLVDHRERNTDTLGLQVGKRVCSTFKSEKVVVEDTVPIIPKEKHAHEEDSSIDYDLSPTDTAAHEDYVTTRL

A-375 [6] = experiment: MITF: Counter assay: A375 proliferation Measured in Cell-Based System Using Plate Reader - 2084-03_Inhibitor_Dose_DryPowder_Activity. [Related pubchem assays (depositor defined):AID488944]; type: functional; conditions: Homo sapiens
CAAX prenyl protease 2 [7] = target: T3, CAAX prenyl protease 2 (Homo sapiens, UniProt Q9Y256); experiment: human Rce1 protease inhibitors, dose response, biochemical, yeast membranes, quenched-peptide fluorescence, cherry-pick (AID 588849)
T3 sequence (Q9Y256 whole entry): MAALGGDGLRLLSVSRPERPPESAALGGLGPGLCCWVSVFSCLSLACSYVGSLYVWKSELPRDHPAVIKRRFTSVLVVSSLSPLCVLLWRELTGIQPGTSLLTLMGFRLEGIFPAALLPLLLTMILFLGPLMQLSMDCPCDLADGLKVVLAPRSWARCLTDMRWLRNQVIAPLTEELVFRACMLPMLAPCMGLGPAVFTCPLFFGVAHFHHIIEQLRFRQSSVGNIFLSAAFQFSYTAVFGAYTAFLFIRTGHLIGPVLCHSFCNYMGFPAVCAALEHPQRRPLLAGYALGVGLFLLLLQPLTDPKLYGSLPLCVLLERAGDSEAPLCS

CAAX prenyl protease 2 [8] = target: T4, CAAX prenyl protease 2 (Saccharomyces cerevisiae S288c, UniProt Q03530); type: biochemical
T4 sequence (Q03530 whole entry): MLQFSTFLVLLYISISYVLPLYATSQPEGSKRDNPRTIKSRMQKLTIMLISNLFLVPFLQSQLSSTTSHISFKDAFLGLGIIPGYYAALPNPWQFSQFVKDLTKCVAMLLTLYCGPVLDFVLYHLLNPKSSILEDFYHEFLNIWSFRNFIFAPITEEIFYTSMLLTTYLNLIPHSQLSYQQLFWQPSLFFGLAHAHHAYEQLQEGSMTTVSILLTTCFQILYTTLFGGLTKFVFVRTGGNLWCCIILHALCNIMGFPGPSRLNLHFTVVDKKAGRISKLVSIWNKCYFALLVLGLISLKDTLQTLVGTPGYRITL

Trypsin = Trypsin (Sus scrofa, UniProt P00761); experiment: porcine trypsin inhibitors, dose response, selectivity assay for Rce1 protease inhibitor project, biochemical, quenched peptide fluorescence, cherry-pick (AID 488789)
cells = type: functional, cell-based; conditions: HEK-CNG
Galanin receptor type 3 = target: T5, Galanin receptor type 3 (Homo sapiens, UniProt O60755); experiment: Fluorescence-based cell-based primary high throughput dose response assay to identify antagonists of the Galanin Receptor 3 (GalR3).; type: functional
T5 sequence (O60755 whole entry): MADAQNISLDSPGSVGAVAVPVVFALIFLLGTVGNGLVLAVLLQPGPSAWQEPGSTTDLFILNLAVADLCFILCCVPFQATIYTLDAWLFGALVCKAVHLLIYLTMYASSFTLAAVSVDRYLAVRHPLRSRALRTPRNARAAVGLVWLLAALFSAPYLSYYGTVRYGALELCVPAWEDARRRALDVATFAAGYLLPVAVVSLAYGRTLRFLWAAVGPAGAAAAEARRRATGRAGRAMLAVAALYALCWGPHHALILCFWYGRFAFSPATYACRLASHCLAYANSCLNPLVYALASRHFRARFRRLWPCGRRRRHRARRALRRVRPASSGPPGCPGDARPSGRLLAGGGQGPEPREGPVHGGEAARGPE

[9] = C. albicans growth with fluconazole, confirmation, fluorescence, retest (AID 2467); type: functional, cell-based
[10] = NIH-3T3 fibroblast cytotoxicity, dose response, cytotoxicity control, cell-based, fluorescence, Alamar Blue, secondary assay (AID 2327); type: functional;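 further: NIH-3T3 mouse fibroblasts cultured with fluconazole at 8 µg/mL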
Aminopeptidase N = target: T6, Aminopeptidase N (Plasmodium falciparum FcB1/Columbia, UniProt O96935); experiment: P. falciparum M1AAP inhibitors, biochemical, fluorogenic H-Leu-NHMec substrate, 1536-well (AID 1445); parameters: species or system Plasmodium falciparum 3D7, 3D7
T6 sequence (O96935 whole entry): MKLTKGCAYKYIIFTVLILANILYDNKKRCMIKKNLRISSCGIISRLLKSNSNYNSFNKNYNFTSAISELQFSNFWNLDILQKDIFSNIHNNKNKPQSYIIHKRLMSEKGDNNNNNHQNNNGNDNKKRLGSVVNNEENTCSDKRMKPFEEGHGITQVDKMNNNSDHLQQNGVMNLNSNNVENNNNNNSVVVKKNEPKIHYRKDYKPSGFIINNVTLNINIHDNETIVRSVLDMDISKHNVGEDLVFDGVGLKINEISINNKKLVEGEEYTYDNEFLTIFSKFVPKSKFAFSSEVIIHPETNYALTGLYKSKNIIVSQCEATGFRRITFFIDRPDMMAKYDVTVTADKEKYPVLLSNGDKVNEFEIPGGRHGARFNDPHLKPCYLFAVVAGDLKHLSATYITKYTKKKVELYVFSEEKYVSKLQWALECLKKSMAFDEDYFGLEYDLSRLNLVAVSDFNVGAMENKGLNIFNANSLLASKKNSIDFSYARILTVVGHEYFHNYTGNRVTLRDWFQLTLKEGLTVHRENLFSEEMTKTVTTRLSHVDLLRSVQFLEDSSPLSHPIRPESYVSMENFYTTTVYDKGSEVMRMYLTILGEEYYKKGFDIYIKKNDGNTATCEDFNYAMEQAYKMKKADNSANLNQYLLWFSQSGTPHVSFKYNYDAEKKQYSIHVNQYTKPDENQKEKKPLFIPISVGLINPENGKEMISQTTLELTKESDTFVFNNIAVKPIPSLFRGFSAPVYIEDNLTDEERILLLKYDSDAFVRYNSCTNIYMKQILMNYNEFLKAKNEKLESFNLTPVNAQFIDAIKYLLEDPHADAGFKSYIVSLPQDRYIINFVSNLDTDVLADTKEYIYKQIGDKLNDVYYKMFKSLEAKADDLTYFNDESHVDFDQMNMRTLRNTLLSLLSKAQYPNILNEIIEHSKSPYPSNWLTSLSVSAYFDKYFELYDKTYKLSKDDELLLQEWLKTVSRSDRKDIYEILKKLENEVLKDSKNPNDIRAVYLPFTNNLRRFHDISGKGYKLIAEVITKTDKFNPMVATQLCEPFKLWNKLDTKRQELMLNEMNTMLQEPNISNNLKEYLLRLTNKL

INS1 = experiment: beta cell apoptosis inhibitors, cytokine rescue, dose response, luminescence, retest (AID 449756); type: functional, cell-based; conditions: Rattus norvegicus;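 further: cell death triggered by IL-1 beta plus TNF-alpha plus IFN-gamma mixture; protective hits raise ATP signal compared with cytokine alone wells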
[11] = insulin promoter down-regulators in MIN6 cells, imaging, high-content screening, mouse beta cells (AID 1628); type: functional
[12] = cytotoxicity in MIN6 insulinoma cells, dose response, cytotoxicity control, cell-based, mouse insulinoma (AID 2122); type: functional;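 further: confirmatory high-throughput counterscreen run to flag cytotoxic compounds; mouse MIN-6 beta cells carrying an insulin promoter eGFP reporter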

Chain of Delta-type opioid receptor (P41143 whole entry): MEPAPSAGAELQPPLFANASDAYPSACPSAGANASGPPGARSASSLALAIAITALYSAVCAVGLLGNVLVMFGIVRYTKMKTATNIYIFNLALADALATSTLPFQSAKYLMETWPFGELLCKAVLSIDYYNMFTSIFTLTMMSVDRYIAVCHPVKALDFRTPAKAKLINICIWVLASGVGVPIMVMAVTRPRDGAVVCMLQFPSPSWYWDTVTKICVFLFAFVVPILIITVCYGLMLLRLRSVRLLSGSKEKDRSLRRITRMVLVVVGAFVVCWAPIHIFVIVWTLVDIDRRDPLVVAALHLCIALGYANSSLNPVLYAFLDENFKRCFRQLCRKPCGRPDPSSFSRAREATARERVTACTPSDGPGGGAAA
Chain of Mu-type opioid receptor (P35372 whole entry): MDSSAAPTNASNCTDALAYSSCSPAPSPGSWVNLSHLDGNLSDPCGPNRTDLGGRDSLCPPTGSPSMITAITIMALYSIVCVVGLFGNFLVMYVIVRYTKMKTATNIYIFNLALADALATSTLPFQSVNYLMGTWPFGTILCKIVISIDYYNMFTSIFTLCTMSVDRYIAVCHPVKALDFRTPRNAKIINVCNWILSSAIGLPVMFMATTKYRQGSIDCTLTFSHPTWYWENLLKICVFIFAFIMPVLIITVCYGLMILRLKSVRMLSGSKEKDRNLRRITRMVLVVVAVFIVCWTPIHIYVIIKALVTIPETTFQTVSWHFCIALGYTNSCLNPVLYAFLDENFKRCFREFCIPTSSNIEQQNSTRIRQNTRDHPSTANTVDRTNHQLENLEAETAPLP
Chain of 5-hydroxytryptamine receptor 5A (P47898 whole entry): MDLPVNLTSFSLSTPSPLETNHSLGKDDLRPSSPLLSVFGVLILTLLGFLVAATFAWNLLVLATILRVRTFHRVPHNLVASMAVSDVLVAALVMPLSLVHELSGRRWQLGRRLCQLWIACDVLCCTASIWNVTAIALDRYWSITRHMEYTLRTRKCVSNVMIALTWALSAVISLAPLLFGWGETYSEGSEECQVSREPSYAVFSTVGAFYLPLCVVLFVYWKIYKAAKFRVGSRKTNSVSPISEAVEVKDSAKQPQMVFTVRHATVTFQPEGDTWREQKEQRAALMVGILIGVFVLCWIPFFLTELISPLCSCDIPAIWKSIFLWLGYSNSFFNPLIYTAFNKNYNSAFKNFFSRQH
Chain of Trypsin (P00761 whole entry): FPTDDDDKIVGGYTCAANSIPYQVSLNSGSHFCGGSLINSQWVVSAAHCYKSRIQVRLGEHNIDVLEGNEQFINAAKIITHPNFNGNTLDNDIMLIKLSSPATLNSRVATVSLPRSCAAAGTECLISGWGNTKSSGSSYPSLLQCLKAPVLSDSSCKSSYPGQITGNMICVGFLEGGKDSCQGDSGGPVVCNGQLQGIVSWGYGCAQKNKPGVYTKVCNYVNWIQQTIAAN

SMILES: CC(C)(C)c1ccc(C(=O)O)c(C(=O)c2ccc(C(=O)O)cc2)c1
- AC50 (Escherichia coli): 49.3 µM (active)

- EC50 [1]: > 92.5 µM (inactive)
- EC50 [2]: > 92.5 µM (inactive)
- EC50 (Mu-type opioid receptor): > 92.5 µM (inactive)
SMILES: CCOC(=O)C1(Cc2ccccc2)CCN(Cc2cccn2-c2nccs2)CC1

SMILES: CN(C)CCCN(C(=O)c1ccc(Cl)s1)c1nc2cc3c(cc2s1)OCO3
- AC50 [3]: 22.9 µM (active)
- AC50 (A-375 [4]): > 11 µM (active)
- EC50 [5]: 5.96 µM (active)
- AC50 (A-375 [6]): > 11 µM (active)

- EC50 [1]: > 92.5 µM (inactive)
- EC50 [2]: > 92.5 µM (inactive)
- EC50 (Mu-type opioid receptor): > 92.5 µM (inactive)
SMILES: O=C(Nc1ccccc1)c1ccc(NC2CCCCC2)c(S(=O)(=O)N2CCOCC2)c1

- AC50 (CAAX prenyl protease 2 [7]): 5.17 µM (active)
- AC50 (CAAX prenyl protease 2 [8]): 7.99 µM (active)
SMILES: CN(C)c1ccc(/C=N/NC(=O)CNC(=O)c2ccco2)cc1

- AC50 (Trypsin): 9.63 µM (active)
- AC50 (CAAX prenyl protease 2 [8]): 68 µM (active)
SMILES: CC1(c2ccncc2)Nc2ccccc2-c2nc3ccccc3n21 (centres undefined)

SMILES: CC(C)(C)c1ccc(-c2c[n+](-c3ccc(Br)cc3)c3n2CCCS3)cc1
- EC50 (cells): > 29.9 µM (inactive)
- AC50 [3]: 3.2 µM (active)
- IC50 (Galanin receptor type 3): 10.1 µM (inactive)
- AC50 (A-375 [4]): 34.1 µM (active)
- EC50 [9]: 0.199 µM (active)
- EC50 [10]: > 160 µM (inactive)

- AC50 (Trypsin): 5.99 µM (active)
- AC50 (CAAX prenyl protease 2 [7]): 2.64 µM (active)
- AC50 (CAAX prenyl protease 2 [8]): 6.98 µM (active)
SMILES: CN(c1ccccc1)c1ccc(/C=N/NC(=O)CC#N)cc1

SMILES: COc1ccc(-c2nc3n(c2C)Cc2ccccc2-3)cc1
- AC50 (A-375 [6]): 30.1 µM (active)

SMILES: COc1ccc(/C=N/NC(=O)c2[nH]c3ccc(Br)cc3c2-c2ccccc2)c(C(=O)O)c1OC
- IC50 (Aminopeptidase N): 65.3 µM (active)

SMILES: Cn1cc(CNCc2ccc(OC(F)(F)F)cc2)c(-c2ccc3c(c2)OCCO3)n1
- AC50 (INS1): 1.04 µM (active)
- IC50 [11]: 0.272 µM (active)
- IC50 [12]: < 0.25 µM (active)

SMILES: Cc1nn(Cc2ccccc2)c(C)c1C(=O)NCc1ccccc1
- AC50 (Escherichia coli): 42.7 µM (active)

- EC50 [5]: 0.0533 µM (active)
- EC50 [1]: 31 µM (inactive)
- EC50 [2]: > 92.5 µM (inactive)
- EC50 (Mu-type opioid receptor): > 92.5 µM (inactive)
SMILES: CC(=O)NC(CC(=O)NCC(c1ccco1)N(C)C)c1ccccc1 (centres undefined)
